# Source: patent US20230257354A1, “NOVEL HETEROCYCLIC COMPOUNDS” (Hoffmann-La Roche Inc., priority 2020, published 2023)
# System: Acinetobacter baumannii ATCC17978
# Assay: Antimicrobial susceptibility testing, 90% growth inhibitory concentration (IC90) determination, ATCC17978
# Format: cell-based
# Conditions: Iso-Sensitest broth, OD 600 nm over 16 h, 35±2° C., read-out: ATCC 17978 IC90
# Protocol: Antimicrobial Susceptibility Testing: 90% Growth Inhibitory Concentration (IC90) Determination The in vitro antimicrobial activity of the compounds was determined according to the following procedure: The assay used a 10-points Iso-Sensitest broth medium to measure quantitatively the in vitro activity of the compounds against Acinetobacter baumannii ATCC17978 or ATCC17961. Stock compounds in DMSO were serially twofold diluted (e.g. range from 50 to 0.097 μM final concentration) in 384 wells microtiter plates and inoculated with 49 μl the bacterial suspension in Iso-Sensitest medium to have a final cell concentration of ˜5×10^(5) CFU/ml in a final volume/well of 50 ul/well. Microtiter plates were incubated at 35±2° C. Bacterial cell growth was determined with the measurement of optical density at X=600 nm each 20 minutes over a time course of 16 h. Growth inhibition was calculated during the logarithmic growth of the bacterial cells with determination of the concentration inhibiting 50% (IC50) and 90% (IC90) of the growth. Table 1 provides the 90% growth inhibitory concentrations (IC90) in micromoles per liter of the compounds of present invention obtained against the strain Acinetobacter baumannii ATCC17978.
row,SMILES,IC90 [nM]
1,"COc1ccc(-c2cnc(C(=O)Nc3ccc(C(=O)NCCCCCN(C)C)c(Cl)c3)n2C)c(F)c1F [Example A26, N-[3-chloro-4-[5-(dimethylamino)pentylcarbamoyl]phenyl]-5-(2,3-difluoro-4-methoxy-phenyl)-1-methyl-imidazole-2-carboxamide]",200
2,"CC(C)CCOCCNC(=O)c1ccc(NC(=O)c2ncc(-c3ccc(OCC#N)c(F)c3F)n2C)cc1Cl [Example A27, N-[3-chloro-4-(2-isopentyloxyethylcarbamoyl)phenyl]-5-[4-(cyanomethoxy)-2,3-difluoro-phenyl]-1-methyl-imidazole-2-carboxamide;formic acid]",240
3,"COc1ccc(-c2cnc(C(=O)Nc3ccc(C(=O)NCCN4CCC(O)C4)c(Cl)c3)n2C)c(F)c1F (stereo not shown) [Example A28, N-[3-chloro-4-[2-(3-hydroxypyrrolidin-1-yl)ethylcarbamoyl]phenyl]-5-(2,3-difluoro-4-methoxy-phenyl)-1-methyl-imidazole-2-carboxamide]",1200
4,"CCc1cc(NC(=O)c2ncc(-c3ccc(OC)c(F)c3F)n2C)ccc1C(=O)NCCCOCCN(C)C [Example A30, 5-(2,3-difluoro-4-methoxy-phenyl)-N-[4-[3-[2-(dimethylamino)ethoxy]propylcarbamoyl]-3-ethyl-phenyl]-1-methyl-imidazole-2-carboxamide]",250
5,"COc1ccc(-c2cnc(C(=O)Nc3ccc(C(=O)NC4CCN(C(=O)C5CCNCC5)C4)c(Cl)c3)n2C)c(F)c1F (stereo not shown) [Example B1, N-[3-Chloro-4-[[1-(piperidine-4-carbonyl)pyrrolidin-3-yl]carbamoyl]phenyl]-5-(2,3-difluoro-4-methoxy-phenyl)-1-methyl-imidazole-2-carboxamide; formic acid]",110
6,"COc1ccc(-c2cnc(C(=O)Nc3ccc(C(=O)NC4CCN(C(=O)[C@@H]5CCNC5)C4)c(Cl)c3)n2C)c(F)c1F (stereo partly drawn) [Example B2, N-[3-chloro-4-[[1-[(3R)-pyrrolidine-3-carbonyl]pyrrolidin-3-yl]carbamoyl]phenyl]-5-(2,3-difluoro-4-methoxy-phenyl)-1-methyl-imidazole-2-carboxamide;formic acid]",130
7,"COc1ccc(-c2cnc(C(=O)Nc3ccc(C(=O)NC4CCN(C(=O)[C@@H]5C[C@@H](O)CN5)C4)c(Cl)c3)n2C)c(F)c1F (stereo partly drawn) [Example B3, N-[3-chloro-4-[[1-[(2S,4R)-4-hydroxypyrrolidine-2-carbonyl]pyrrolidin-3-yl]carbamoyl]phenyl]-5-(2,3-difluoro-4-methoxy-phenyl)-1-methyl-imidazole-2-carboxamide;formic acid]",280
8,"COc1ccc(-c2cnc(C(=O)Nc3ccc(C(=O)NC4CCN(C(=O)CCOCCN)C4)c(Cl)c3)n2C)c(F)c1F (stereo not shown) [Example B4, N-[4-[[1-[3-(2-aminoethoxy)propanoyl]pyrrolidin-3-yl]carbamoyl]-3-chloro-phenyl]-5-(2,3-difluoro-4-methoxy-phenyl)-1-methyl-imidazole-2-carboxamide;formic acid]",200
9,"COc1ccc(-c2cnc(C(=O)Nc3ccc(C(=O)NC4CCN(C(=O)C5CCNCC5)CC4)c(Cl)c3)n2C)c(F)c1F [Example B5, N-[3-chloro-4-[[1-(piperidine-4-carbonyl)-4-piperidyl]carbamoyl]phenyl]-5-(2,3-difluoro-4-methoxy-phenyl)-1-methyl-imidazole-2-carboxamide;formic acid]",79
10,"COc1ccc(-c2cnc(C(=O)Nc3ccc(C(=O)NC4CCN(C(=O)[C@@H]5CCNC5)CC4)c(Cl)c3)n2C)c(F)c1F [Example B6, N-[3-chloro-4-[[1-[(3R)-pyrrolidine-3-carbonyl]-4-piperidyl]carbamoyl]phenyl]-5-(2,3-difluoro-4-methoxy-phenyl)-1-methyl-imidazole-2-carboxamide;formic acid]",100
